Source: patent US7838020B2, “Cosmetic or dermatological composition comprising an association between a compound of the N-acylaminoamide family and at least one matrix metalloproteinase inhibitor” (L'Oreal, priority 2001, dated 2010)

Key:
[1] = biological target: T1, human leukocyte elastase (ELH) (Homo sapiens, UniProt P08246); assay: in vitro anti-elastasic activity, Me-OSAAPV-p-NA substrate, spectrophotometry; assay type: biochemical; conditions: even in a small amount (0.01% to 0.2%)
T1 sequence (P08246 30-267): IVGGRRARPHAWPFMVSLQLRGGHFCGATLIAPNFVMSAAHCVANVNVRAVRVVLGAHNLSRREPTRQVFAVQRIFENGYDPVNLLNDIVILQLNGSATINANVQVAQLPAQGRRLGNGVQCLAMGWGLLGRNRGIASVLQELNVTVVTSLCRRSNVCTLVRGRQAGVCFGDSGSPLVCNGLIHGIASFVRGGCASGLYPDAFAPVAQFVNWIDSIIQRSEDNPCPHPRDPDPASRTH
Procedure: The anti-elastasic activity of compounds according to the invention is determined in vitro compared to the human leukocyte elastase (ELH).
The test is performed in the following way:
A Me-OSAAPV-p-NA (méthyl-O-succinate alanine alanine proline valine-p-nitroaniline) substrate, onto which ELH (40 milli-units per ml) and 0.1% of the compound to be tested are applied, is left for incubating at 37° C. for 60 minutes.
Thereafter, the % inhibition of the control elastase activity is determined by spectrophotometry.

[2] = biological target: T1, human leukocyte elastase (ELH); assay: ex vivo activity on fresh human skin cuts treated with ELH for 2 hours (Example 4); assay type: cell-based; conditions: 20° C.
Procedure: (§1) The ex vivo activity of example 2 compound has been evaluated on surviving human skins treated by a human leukocyte elastase (ELH).
The test is performed the following way.
Fresh human skin cuts from two different donors are treated for 2 hours, at 20° C., by 20 μl of a buffer solution (pH 7.4) optionally comprising 10 μg/ml ELH and optionally 0.1% of the compound to be tested, optionally previously put in solution in ethanol.
(§2) The elastic fibres are coloured in blue using catechin (+) and quantified morphometrically using a computer assisted image analysis. The average derma surface percentage occupied by elastic fibres is evaluated this way.

[3] = biological target: T1, human leukocyte elastase (ELH); assay: ex vivo activity on surviving human skin fragments treated with ELH, 10 days culture (Example 5); assay type: cell-based; conditions: 0.5 μg ELH per ml; 5 μl of 0.2% compound in ethanol every two days; 10 days at 37° C.; control 7.4%, ELH alone 5.1%
Procedure: as §1
The test is performed the following way:
Fragments of normal human skin from three different donors are deposited in inserts positioned in culture wells. Culture medium added with antibiotics is added in the bottom of the wells. A pass is performed through slow diffusion between the two compartments via a porous membrane (pore size: 12 μm).
The culture medium is renewed every three days.
On the skin fragments, optionally 0.5 μg ELH per ml culture medium are added.
5 μl of the compound to be tested are also added every two days, previously put in solution at 0.2% by weight in ethanol.
The skins are kept surviving for 10 days at 37° C.
as §2

## CC(=O)N(c1cccc(C(F)(F)F)c1)C(C(=O)NCC(=O)O)C(C)C (stereo not shown) [Compound A, {2-[acetyl-(3-trifluoromethyl-phenyl)-amino]-3-méthyl-butyryl-amino}acetic acid]
[1]
  inhibition of the elastase activity (in words): strong inhibition
[2]; Skin 1, 10 μg/ml ELH + 0.1% compound, control 12.7%, ELH alone 4.85%
  % Surface occupied by elastic fibres: 13.95%
[2]; Skin 2, 10 μg/ml ELH + 0.1% compound, control 15.25%, ELH alone 6.85%
  % Surface occupied by elastic fibres: 11.85%
[3]
  % Surface occupied by elastic fibres: 7.1%
